According to paper PMC10399118, “Detection of endogenous NPY release determined by novel GRAB sensor in cultured cortical neurons” (Frontiers in Cellular Neuroscience, 2023):
Read-outs that look alike come from different tables or passages of the source.

Tests used:
[1] = tested on: cultured cortical neurons; test: sRGECO calcium sensor imaging of neuronal activity in cultured cortical neurons; assay type: cell-based, mouse
Description: Cortex was isolated from postnatal day 1–2 (P1-P2) mice (C57Bl/6, Charles River, Germany), and the meninges were removed in ice-cold dissection media containing 10% 10xHBSS (Gibco, Scotland, #14065056), 1% P/S, 1% sodium pyruvate (Gibco, Scotland, #11360070), 1% 1M HEPES (Gibco, Scotland), and 1.2% 45% glucose (Sigma-Aldrich, Germany). […]
Neurons were continuously perfused with artificial cerebrospinal fluid (aCSF) [120 mM NaCl, 5 mM KCl, 2 mM CaCl2, 2 mM MgCl2, 25 mM HEPES, and 30 mM D-glucose] at pH 7.4 and 32°C for all live imaging experiments. […] The collected images were recorded either at a frame rate of 1 frame/second when recording GRAB NPY1.0 alone or 4 frames/second when the sRGECO signal was also recorded. […]
(§1) Epifluorescence imaging was conducted under constant slow perfusion of aCSF buffers at a flow rate of approximately 1 ml/min. To induce neuronal activity, bicuculline (Bic; 50 μM; 14340, Sigma-Aldrich, Germany; dissolved in DMSO) and 4-aminopyridine (4-AP; 250 μM; 275875, Sigma-Aldrich, Germany; dissolved in Milli-Q water) was added together with aCSF, which was carefully measured after adding the compounds to confirm a pH of 7.4. […]

GRAB NPY1.0 sensor [2] = test: GRAB NPY1.0 sensor live-cell fluorescence imaging in cultured cortical neurons; assay type: cell-based, mouse
Description: Cortex was isolated from postnatal day 1–2 (P1-P2) mice (C57Bl/6, Charles River, Germany), and the meninges were removed in ice-cold dissection media containing 10% 10xHBSS (Gibco, Scotland, #14065056), 1% P/S, 1% sodium pyruvate (Gibco, Scotland, #11360070), 1% 1M HEPES (Gibco, Scotland), and 1.2% 45% glucose (Sigma-Aldrich, Germany). The cortices were cut into smaller pieces and incubated for 20–30 min at 37°C in papain solution containing 20 units/mL papain (Worthington Biochemical, #LS003126), 1mM L-cysteine (Sigma-Aldrich, Germany, #C7352), 1.9 mM CaCl2 (Sigma-Aldrich, Germany), 0.5 mM Kynurenic acid (Sigma-Aldrich, Germany, #K3375), pH adjusted to 7.4 with HCl and oxygenated with 95% O2 and 5% CO2. After incubation, the tissue was washed 3 times with Neurobasal A media and carefully triturated 3–5 times with a glass Pasteur pipette with a fire-polished tip. The dissociated cortical neurons were plated at a density of 100,000 or 150,000 cells/well onto the glia monolayered 18- or 25-mm coverslips, respectively, and grown in Neurobasal A media containing 1% Glutamax, 2% B-27, and 0.1% P/S. The day after seeding the neurons, half of the media was changed to remove any cell debris. Every 3–4 days, 1/4 of the media in the wells was removed and replaced with double of the removed volume of fresh neuronal media. The use of experimental animals was conducted in concordance with the Danish Research Ethical Committee for Experimental Animals (ethical permit #2017-15-0202-00092; PI: Andreas Toft Sørensen).
The following AAV vectors were used for experiments: GRAB NPY1.0 sensor (AAV2/9-hSyn-GRAB_NPY1.0; 6E+12−4.7E+13 vg/ml, 1 μL/well); sRGECO calcium sensor (AAV2/8-Ef1a-sRGECO-WPRE; Addgene plasmid #137125; RRID:Addgene_137125; 2.2E+13 vg/ml, 0.2 μL/well) ([Fenno et al., 2020]); NPY1-36 vector (AAV2/8-hSyn-PreproNPY-WPREpA; full-length peptide incl. CPON; produced in-house; 7.8E+12 vg/ml, 0.5 μL/well) ([Soud et al., 2019]). Primary cultures were transduced after 2–3 DIV and given […] to assure robust expression before being used for live-cell imaging.
Neurons were continuously perfused with artificial cerebrospinal fluid (aCSF) [120 mM NaCl, 5 mM KCl, 2 mM CaCl2, 2 mM MgCl2, 25 mM HEPES, and 30 mM D-glucose] at pH 7.4 and 32°C for all live imaging experiments. An RC-21BDW microscope flow chamber (Warner Instruments, Hamden, CT, USA) was used to hold the coverslips and to apply a flow of different aCSF and drug buffers during imaging at 20× with a Nikon Eclipse Ti microscope connected to two EM-CCD cameras (iXon3 897, Andor). A NIS-Elements software (Nikon, Tokyo, Japan) was used for recordings. GRAB NPY1.0 and sRGECO biosensors were excited with 488 nm and 561 nm laser lines (LED sapphire laser; Coherent Inc., Santa Clara, CA, USA), respectively. For the 488 nm LED laser excitation, a 491 nm mirror, and a 475/35 nm band-pass filter were used, while a 525/50 nm band-pass filter (AHF Analysentechnik, Tübingen-Pfrondorf, Germany) was used to detect emitted light. For the 561 nm LED laser excitation, a 561 nm mirror, and a 560/40 nm band-pass filter were used, while a 630/75 nm band-pass filter (AHF Analysentechnik, Tübingen-Pfrondorf, Germany) was used to detect emitted light. The collected images were recorded either at a frame rate of 1 frame/second when recording GRAB NPY1.0 alone or 4 frames/second when the sRGECO signal was also recorded. All recordings were performed using epifluorescence microscopy.
as §1

GRAB NPY1.0 sensor [3] = conditions: ref Wang et al., 2022, read-out: EC50 of GRAB NPY1.0 sensor response, cited from earlier work
Description: Here, we report on the usage of the GRAB NPY1.0 sensor in mouse-cultured cortical neurons and address the question: can the sensor detect the release of endogenous NPY? This sensor, recently developed in the Yulong Li laboratory, Peking University of China, is one of six neuropeptide-based GRAB sensors engineered for detecting either SST, CCK, CRF, NTS, VIP or NPY ([Wang et al., 2022]). While it was shown that the SST, CCK, and CRF sensors can detect endogenously released neuropeptides ([Wang et al., 2022]), similar information is lacking on the NPY1.0 sensor. In our setup, we tested the NPY1. ...

[4] = transgene NPY cultures, BIBO3304 applied during Bic + 4-AP

Compound: Neuropeptide Y [NPY]
- change of sRGECO fluorescent signal (neuronal activity) during continuous Bic + 4-AP perfusion ([1]; exogenous NPY added to primary cultures during Bic + 4-AP): marked decrease
- neurons expressing the GRAB NPY1.0 sensor that remained unresponsive (GRAB NPY1.0 sensor [2]; 1 μM exogenous NPY, naive mouse cortical cultures, 174 neurons from 9 coverslips): 8 out of 174
- EC50 (GRAB NPY1.0 sensor [2]; mouse cultured cortical neurons expressing GRAB NPY1.0, exogenous NPY1-36 0.3, 1, 30, 1000 nM in aCSF with 1% BSA, pH 7.4, 32°C, mean ΔF/F0, three-parameter fit, n = 130 neurons from 5 coverslips, read-out: EC50 of GRAB NPY1.0 fluorescence response (normalized dose-response curve)): 38 nM
- EC50 (GRAB NPY1.0 sensor [3]; HEK293T cells stably expressing the NPY1.0 sensor): 40 nM
- EC50 (GRAB NPY1.0 sensor [3]; rat cortical neurons transduced by a similar AAV9 vector with human synapsin promoter): 0.7 nM

Compound: NC(=O)NCc1ccc(CNC(=O)[C@@H](CCCN=C(N)N)NC(=O)C(c2ccccc2)c2ccccc2)cc1 [BIBO3304]
- effect on high-frequency activity induced by Bic + 4-AP (sRGECO signal) ([1]; BIBO3304 applied to the cultures): not per se affected
- change of GRAB NPY1.0 fluorescence signal at baseline conditions (GRAB NPY1.0 sensor [2]; BIBO3304 1 μM applied at baseline, n = 90 neurons from 2 coverslips): remained unchanged
- change of GRAB NPY1.0 fluorescence when added during Bic + 4-AP (GRAB NPY1.0 sensor [2]; NPY transgene (AAV-NPY) cortical cultures, BIBO3304 1 μM added to Bic 50 μM + 4-AP 250 μM, n = 128 neurons from 6 coverslips): significant drop in fluorescence
- effect on GRAB NPY1.0 signal of cluster A during Bic + 4-AP (GRAB NPY1.0 sensor [2]; [4]): not affected
- effect on GRAB NPY1.0 signal of clusters B and C during Bic + 4-AP (GRAB NPY1.0 sensor [2]; [4]): significantly reduced
